{"source": "patent US7745417B2", "about": "“Nucleosides or nucleotides having novel unnatural bases and use thereof” (RIKEN, priority 2002, dated 2010)", "molecules": {"B1": {"name": "RNA OC (ssRNA)", "RNA": "GGGAGUGGAGGAAUUCAUCGAGGCAUCUGGGAACCCUAUCUUGCUUUUGGUAGCUGUAUUCACCUGUAACAGCAUAUGCCUUAGCGACAGCAAGCUUCUGC"}, "B2": {"name": "RNA 9A (ssRNA)", "RNA": "GGGAGUGGAGGAAUUCAUCGAGGCAUAUGUCGACUCCGUCUUCCUUCAAACCAGUUAUAAAUUGGUUUUAGCAUAUGCCUUAGCGACAGCAAGCUUCUGC"}, "B3": {"name": "RNA XL (UV-crosslinked dimer of 9A(5Iy87)) (ssRNA)", "RNA 1": "B2 RNA", "RNA 2": "B2 RNA", "modifications": "5Iy at position 87, UV-crosslinked dimer"}, "B4": {"name": "RNA 9Ax2 (tandem 9A, 200 nt) (ssRNA)", "RNA": "GGGAGUGGAGGAAUUCAUCGAGGCAUAUGUCGACUCCGUCUUCCUUCAAACCAGUUAUAAAUUGGUUUUAGCAUAUGCCUUAGCGACAGCAAGCUUCUGCGGGAGUGGAGGAAUUCAUCGAGGCAUAUGUCGACUCCGUCUUCCUUCAAACCAGUUAUAAAUUGGUUUUAGCAUAUGCCUUAGCGACAGCAAGCUUCUGC"}}, "key": {"T7 RNA polymerase [1]": {"target": "T1, T7 RNA polymerase (Escherichia phage T7, UniProt P00573)", "T1 sequence (P00573 whole entry)": "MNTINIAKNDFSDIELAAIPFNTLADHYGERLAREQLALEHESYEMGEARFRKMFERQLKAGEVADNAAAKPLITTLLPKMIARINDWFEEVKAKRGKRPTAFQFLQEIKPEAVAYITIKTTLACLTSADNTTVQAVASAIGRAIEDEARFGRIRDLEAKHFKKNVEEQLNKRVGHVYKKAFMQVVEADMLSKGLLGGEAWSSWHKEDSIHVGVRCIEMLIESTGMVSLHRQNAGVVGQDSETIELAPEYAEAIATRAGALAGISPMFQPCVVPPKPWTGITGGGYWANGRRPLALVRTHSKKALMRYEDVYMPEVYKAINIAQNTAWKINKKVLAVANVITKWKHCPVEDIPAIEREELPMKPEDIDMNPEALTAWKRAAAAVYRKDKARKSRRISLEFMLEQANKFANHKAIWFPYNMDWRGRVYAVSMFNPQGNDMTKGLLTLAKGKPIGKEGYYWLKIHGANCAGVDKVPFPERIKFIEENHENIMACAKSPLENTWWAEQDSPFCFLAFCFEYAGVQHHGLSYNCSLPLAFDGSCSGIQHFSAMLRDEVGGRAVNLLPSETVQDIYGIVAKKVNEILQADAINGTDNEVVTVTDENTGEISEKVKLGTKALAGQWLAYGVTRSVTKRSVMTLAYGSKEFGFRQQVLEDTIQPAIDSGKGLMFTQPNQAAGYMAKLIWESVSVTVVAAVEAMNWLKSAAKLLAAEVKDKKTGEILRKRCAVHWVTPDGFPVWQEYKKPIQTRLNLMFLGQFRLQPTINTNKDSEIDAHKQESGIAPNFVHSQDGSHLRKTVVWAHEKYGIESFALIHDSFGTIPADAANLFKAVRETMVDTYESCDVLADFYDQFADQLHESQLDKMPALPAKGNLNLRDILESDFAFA", "details": "0.25 mM triphosphate; product of 100 nucleotides", "experimental": "(§1) The reaction composition of T7 transcription may be the same as described in Ohtsuki et al., 2001. Details are as follows: 40 mM Tris-HCl (pH 8.0), 5 mM DTT, 24 mM MgCl2, 2 mM spermidine, 0.01% TritonX-100, 10 mM GMP, 1 mM NTPs, 0-0.25 mM 5IyTP, 0.2 μl/μl template DNA, and 2.5 U/μl T7 RNA polymerase (TaKaRa). After enzymatic reaction at 37° C. for 6 hours, each reaction product was purified by electrophoresis on an 8% polyacrylamide-7M urea gel."}, "T7 RNA polymerase [2]": {"target": "T1, T7 RNA polymerase", "details": "T7 transcription", "experimental": "as §1\nWhen T7 transcription reaction is performed in the presence of [α-^32P]ATP or [α-^32P]GTP, a nucleoside 3′-phosphate (Np) 5′-terminal to A or G is labeled with ^32P. Each gel-purified RNA was completely digested into Np by RNase T2 (Sigma). If 5Iy is introduced at residue 84 or 92, the nucleoside 3′-phosphate of 5Iy (5IyTp) is labeled with ^32P via [α-^32P]GTP, while if 5Iy is introduced at residue 87, 5IyTp is labeled via [α-^32P]ATP (FIG. 5, FIG. 6-b). For base composition analysis of 5Iy-containing RNAs, each of the completely digested products was separated by 2D-TLC and determined for each nucleotide content.\nMore specifically, to completely digest RNA, 0.75 μl RNase T2 solution (5 units/μl; 100 mM NaOAc pH 4.5, 10% glycerol) was added to 4.25 μl aqueous solution containing the labeled RNA and a 0.25 OD E. coli-derived tRNA mixture (Sigma), followed by overnight enzymatic reaction at 37° C. A part of the reaction solution was spotted onto a 10 cm×10 cm TLC plate (Funacell SF; Funakoshi Co., Ltd., Japan) and developed in two dimensions. Developing solutions for the first and second dimensions are isobutyric acid/ammonia/water (66:1:33 by volume) and 2-propanol/hydrochloric acid/water (70:15:15 by volume), respectively. The developed spots were detected and quantified using a bioimaging analyzer (BAS2500, Fuji Photo Film Co., Ltd., Japan).\nEach value was calculated from the following equation. The theoretical numbers of nucleotides are in parentheses."}, "T7 RNA polymerase [3]": {"target": "T1, T7 RNA polymerase", "details": "for incorporation into RNA opposite s in the template: 1 mM, in competition with natural NTPs; for efficiency of transcription reaction: full-length 17-mer RNA, transcription using natural base pairing set to 100%; for misincorporation opposite natural nucleotides in the template: s-free control template", "experimental": "The T7 transcription reaction was performed on 20 μl scale. The composition of T7 transcription is as follows: 40 mM Tris-HCl (pH 8.0), 5 mM DTT, 8 mM MgCl2, 2 mM spermidine, 0.01% TritonX-100, 10 mM GMP, 1 mM NTPs (N=A, G, C, U, Bio-yTP, Bio^2-yTP), 2 μCi [α-^32P]ATP, 0.5 μM double-stranded DNA, and 2.5 U/μl T7 RNA polymerase (TaKaRa) [Ohtsuki et al., 2001]. After enzymatic reaction at 37° C. for 3 hours, each reaction solution was supplemented with an equal volume of a 10M urea-containing TPE solution and warmed at 75° C. for 3 minutes to stop the reaction. Aliquot parts of the reaction solutions were then electrophoresed on a 20% polyacrylamide-7M urea gel and the [α-^32P]ATP-labeled reaction products were analyzed with a bioimaging analyzer (BAS2500, Fuji Photo Film Co., Ltd., Japan)."}, "Raf-1 RBD (GST-RBD) [4]": {"target": "T2, Raf-1 RBD (GST-RBD) (Homo sapiens, UniProt P04049 P04049:51-131)", "assay": "EMSA; no shift even at increased GST-RBD", "details": "tags: GST fusion, expressed in E. coli; 2 per XL dimer), stated; label: 32P 5'-end"}, "B-Raf RBD (GST-RBD)": {"target": "B-Raf RBD (GST-RBD) (Homo sapiens, UniProt P15056 P15056:149-226)", "sequence (P15056 149-226, one chain of several)": "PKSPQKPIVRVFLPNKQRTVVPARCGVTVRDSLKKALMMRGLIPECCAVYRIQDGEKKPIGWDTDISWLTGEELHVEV", "assay": "filter; 2 nM RNA; binds B-Raf RBD but does not inhibit B-Raf RBD/Ras interaction", "details": "tags: GST fusion, expressed in E. coli; label: 32P 5'-end; pseudoknot (estimated)", "experimental": "The binding efficiency (Binding %) to various concentrations of protein was determined for each RNA aptamer (2 nM) by a filter binding method and plotted in the figure."}, "Raf-1 RBD (GST-RBD) [5]": {"target": "T2, Raf-1 RBD (GST-RBD)", "assay": "EMSA; 1 XL binds 2 GST-RBD; higher activity than 9Ax2", "details": "tags: GST fusion, expressed in E. coli; 2 per XL dimer), stated; label: 32P 5'-end", "experimental": "(§2) The product (XL) obtained by crosslinking reaction an equal concentration (0.1 µM) mixture of 9A(5Iy87) and Raf-1 RBD was purified from a gel and analyzed for binding between XL and GSTRBD by gel shift assay. As a control of RNA 9A dimer, RNA 9A molecules were also linked in tandem to newly prepare RNA 9A×2 (200 nucleotides in total length), followed by gel shift assay. RNA 9A×2 is an RNA molecule of 200 nucleotides in total length that has two essential regions of RNA 9A (residues 1-80) in its molecule. It was prepared by transcription reaction using T7 RNA polymerase (Epicentre) and subcloned into vector pCR®II-TOPO (Invitrogen).\n(§3) Electrophoresis was performed at room temperature and at a constant voltage (150 V) for about 2 hours (gel size: 16 cm×16 cm×1 mm). The composition of electrophoresis buffer is as follows: 12.5 mM Tris and 125 mM Glycine. Each electrophoresed gel was dried using a gel dryer and analyzed with a bioimaging analyzer (BAS2500, Fuji Photo Film Co., Ltd., Japan)."}, "Raf-1 RBD (GST-RBD) [6]": {"target": "T2, Raf-1 RBD (GST-RBD)", "assay": "EMSA; binding to 2 GST-RBD lower than XL", "details": "tags: GST fusion, expressed in E. coli; 2 per XL dimer), stated; label: 32P 5'-end", "experimental": "as §2, §3"}}, "data": [{"molecule": "O=c1[nH]cc(C#Cc2ccccc2)cc1[C@@H]1O[C@H](COP(=O)(O)OP(=O)(O)OP(=O)(O)O)[C@@H](O)[C@H]1O", "note": "[3-(β-D-ribofuranosyl)-5-(2-phenylethynyl)-pyridin-2(1H)-one 5′-triphosphate]", "values": [{"measurement": "progress of transcription reaction with the unnatural triphosphate", "setting": "T7 RNA polymerase [1]", "value": "confirmed to proceed"}]}, {"molecule": "O=c1[nH]cc(I)cc1[C@@H]1O[C@H](COP(=O)(O)OP(=O)(O)OP(=O)(O)O)[C@@H](O)[C@H]1O", "note": "[5IyTP, 3-(β-D-ribofuranosyl)-5-iodopyridin-2(1H)-one 5′-triphosphate]", "values": [{"measurement": "misincorporated 5Iy, share of the total", "setting": "T7 RNA polymerase [2]", "value": "less than 0.5%"}, {"measurement": "selectivity of incorporation opposite s in the template", "setting": "T7 RNA polymerase [2]; s-containing template", "value": "≥ 97", "unit": "%"}, {"measurement": "progress of transcription reaction with the unnatural triphosphate", "setting": "T7 RNA polymerase [1]", "value": "proceeded efficiently"}]}, {"molecule": "Biotinylated 5-(3-amino-1-propenyl)-3-(β-D -ribofuranosyl)-2-pyridone 5′-triphosphate [Bio-yTP]", "values": [{"measurement": "incorporation into RNA opposite s in the template", "setting": "T7 RNA polymerase [3]", "value": "competitively and selectively incorporated opposite s in the template"}, {"measurement": "efficiency of transcription reaction", "setting": "T7 RNA polymerase [3]", "value": "about 50%"}, {"measurement": "misincorporation opposite natural nucleotides in the template", "setting": "T7 RNA polymerase [3]", "value": "almost no misincorporation"}]}, {"molecule": "Biotinylated 5-(3-amino-1-propynyl)-3-(β-D-ribofuranosyl)-2-pyridone 5′-triphosphate [Bio^2-yTP]", "values": [{"measurement": "incorporation into RNA opposite s in the template", "setting": "T7 RNA polymerase [3]", "value": "competitively and selectively incorporated opposite s in the template"}, {"measurement": "efficiency of transcription reaction", "setting": "T7 RNA polymerase [3]", "value": "about 50%"}, {"measurement": "misincorporation opposite natural nucleotides in the template", "setting": "T7 RNA polymerase [3]", "value": "no misincorporation"}]}, {"molecule": "B1", "values": [{"measurement": "binding result", "setting": "Raf-1 RBD (GST-RBD) [4]", "value": "no binding"}]}, {"molecule": "B2", "values": [{"measurement": "binding result", "setting": "B-Raf RBD (GST-RBD)", "value": "binds"}]}, {"molecule": "B3", "values": [{"measurement": "binding result", "setting": "Raf-1 RBD (GST-RBD) [5]", "value": "binds"}]}, {"molecule": "B4", "values": [{"measurement": "binding result", "setting": "Raf-1 RBD (GST-RBD) [6]", "value": "binds"}]}]}
